US4694069A, “Kibdelosporangium aridum SK&F-AAD-609” (SmithKline Beckman Corporation, priority 1985, dated 1987)
Values after ≈ are worked out from the molar mass of the structure shown.

Columns and labels:
[1] = system: S. aureus 2620 (methicillin resistant strain); test: MIC; type: cell-based; conditions: Table B; methicillin resistant strain
Source text: (§1) In vitro minimum inhibitory concentrations (MIC) of the AAD-609 complex and of Factors A, B, CC2 and D, using standard microtiter assay procedures, against a number of microorganisms are reported in Table A, which follows.

[2] = system: S. faecalis 34358; test: In vitro MIC, standard microtiter assay; type: cell-based, Streptococcus faecalis
Source text: as §1

[3] = system: S. epidermidis 651 (methicillin resistant strain); test: Mouse protection test; type: in vivo; conditions: mice dosed 1 and 5 h post infection s.c.; methicillin resistant strain
Source text: (§2) in mouse protection tests^1
(§3) ^1 Mice dosed 1 and 5 H post infection s.c.; ED50, mg/kg.

[4] = system: S. faecalis 34358; test: Mouse protection test; type: in vivo; conditions: mice dosed 1 and 5 h post infection s.c.
Source text: as §2, §3

[5] = system: S. epidermidis 2479; test: Mouse protection test; type: in vivo; conditions: mice dosed 1 and 5 h post infection s.c.
Source text: as §2, §3

[6] = system: S. aureus 2620 (methicillin resistant strain); test: Mouse protection test; type: in vivo; conditions: mice dosed 1 and 5 h post infection s.c.; methicillin resistant strain
Source text: as §2, §3

[7] = system: S. aureus HH127; test: Mouse protection test; type: in vivo; conditions: mice dosed 1 and 5 h post infection s.c.
Source text: as §2, §3

[8] = pKa by potentiometric titration; conditions: 30:70 acetonitrile:water, apparent values
[9] = system: S. aureus 674; test: In vitro MIC, standard microtiter assay; type: cell-based, Staphylococcus aureus; conditions: Table A
Source text: as §1

[10] = system: S. aureus 910 (methicillin resistant strain); test: In vitro MIC, standard microtiter assay; type: cell-based, Staphylococcus aureus; conditions: Table A; methicillin resistant strain
Source text: as §1

[11] = system: S. aureus 209P; test: In vitro MIC, standard microtiter assay; type: cell-based, Staphylococcus aureus; conditions: Table A
Source text: as §1

[12] = system: S. aureus 675; test: In vitro MIC, standard microtiter assay; type: cell-based, Staphylococcus aureus; conditions: Table A
Source text: as §1

[13] = system: Escherichia coli 12140; test: In vitro MIC, standard microtiter assay; type: cell-based; conditions: Table A
Source text: as §1

[14] = system: Salmonella gallinarum BC-595; test: In vitro MIC, standard microtiter assay; type: cell-based; conditions: Table A
Source text: as §1

[15] = system: S. epidermidis 2265; test: In vitro MIC, standard microtiter assay; type: cell-based; conditions: Table A
Source text: as §1

[16] = system: Staphylococcus aureus HH127; test: In vitro MIC, standard microtiter assay; type: cell-based
Source text: as §1

[17] = system: S. epidermidis 651 (methicillin resistant strain); test: In vitro MIC, standard microtiter assay; type: cell-based; conditions: methicillin resistant strain
Source text: as §1

[18] = system: Streptococcus faecalis 657; test: In vitro MIC, standard microtiter assay; type: cell-based; conditions: Table A
Source text: as §1

[19] = system: S. epidermidis 2479; test: In vitro MIC, standard microtiter assay; type: cell-based
Source text: as §1

[20] = system: Clostridium difficile; test: In vitro MIC, standard microtiter assay; type: cell-based; conditions: Table A
Source text: as §1

[21] = system: S. epidermidis 2683; test: In vitro MIC, standard microtiter assay; type: cell-based; conditions: Table A
Source text: as §1

[22] = comparators, source not given; cited from earlier work
[23] = AAD-216A averaged previous results

CNC1C(=O)NC2C(=O)NC(C(=O)NC3C(=O)NC4C(=O)NC(C(=O)NC(C(=O)O)c5cc(O)cc(OC6OC(CO)C(O)C(O)C6O)c5-c5cc4ccc5O)C(O)c4cc(Cl)c(c(Cl)c4)Oc4cc3cc(c4OC3OC(CO)C(O)C(O)C3NC(=O)CCCCCCCCC(C)C)Oc3ccc(cc3Cl)C2O)c2cc(cc(O)c2Cl)Oc2cc1ccc2O (stereo not shown) [AAD-609 C]
MIC [1]: 4 µg/mL (≈ 2.22 µM)
MIC ([2]; Table A): 0.2 µg/mL (≈ 0.111 µM)
MIC ([2]; Table B): 0.2 µg/mL (≈ 0.111 µM)
ED50 [3]: 50 mg/kg
ED50 [4]: 50 mg/kg
ED50 [5]: 22 mg/kg
ED50 [6]: 8.4 mg/kg
ED50 [7]: 8.5 mg/kg
pKa (A) carboxyl on aglycone [8, 23]: 3.6
pKa (C) amino group on aglycone [8, 23]: 7.2
pKa (D) phenolic OH ([8]; first phenolic OH, AAD-216A averaged previous results): 8.4
pKa (D) phenolic OH ([8]; fourth phenolic OH): 11.6
pKa (D) phenolic OH ([8]; second phenolic OH, AAD-216A averaged previous results): 9.9
pKa (D) phenolic OH ([8]; third phenolic OH, AAD-216A averaged previous results): 10.6
MIC [9]: 1.6 µg/mL (≈ 0.887 µM)
MIC [10]: 1.6 µg/mL (≈ 0.887 µM)
MIC [11]: 0.8 µg/mL (≈ 0.444 µM)
MIC [12]: 6.3 µg/mL (≈ 3.49 µM)
MIC [13]: > 100 µg/mL
MIC [14]: > 100 µg/mL
MIC [15]: 25 µg/mL (≈ 13.9 µM)
MIC ([16]; Table A): 1.6 µg/mL (≈ 0.887 µM)
MIC ([16]; Table B): 1.6 µg/mL (≈ 0.887 µM)
MIC ([17]; Table A): 25 µg/mL (≈ 13.9 µM)
MIC ([17]; Table B): 25 µg/mL (≈ 13.9 µM)
MIC [18]: 0.2 µg/mL (≈ 0.111 µM)
MIC ([19]; Table A): 12.5 µg/mL (≈ 6.93 µM)
MIC ([19]; Table B): 12.5 µg/mL (≈ 6.93 µM)
MIC [20]: 1 µg/mL (≈ 0.554 µM)
MIC [21]: 25 µg/mL (≈ 13.9 µM)

ristocetin
Isoelectric point [22]: 8.4
